We go through 20 compounds from patent publication US20160297833A1, “THIENOPYRIMIDINES AS MKNK1 AND MKNK2 INHIBITORS” (BAYER PHARMA AKTIENGESELLSCHAFT, priority 2013, published 2016).

The target of this experiment is T1, human full-length MKNK1 (Homo sapiens, UniProt Q9BUB5, T385D).
T1 construct: GST (N); purchased Carna Biosciences 02-145; host or cells: insect cells (baculovirus expression system)
Description: MKNK1 kinase high ATP assay (TR-FRET). It is filed as biochemical. As to conditions: Table 1; MKNK1 kinase high ATP assay, 2 mM ATP; read-out: MKNK1 IC50. The procedure: MKNK1 Kinase High ATP Assay
MKNK1-inhibitory activity at high ATP of compounds of the present invention after their preincubation with MKNK1 was quantified employing the TR-FRET-based MKNK1 high ATP assay as described in the following paragraphs.
As substrate for the kinase reaction the biotinylated peptide biotin-Ahx-[…] (C-terminus in amide form) was used, which can be purchased e.g. from the company Biosyntan (Berlin-Buch, Germany).
For the assay 50 nL of a 100 fold concentrated solution of the test compound in DMSO was pipetted into a black low volume 384 well microtiter plate (Greiner Bio-One, Frickenhausen, Germany), 2 μL of a solution of MKNK1 in aqueous assay buffer [50 mM HEPES pH 7.5, 5 mM MgCl2, 1.0 mM dithiothreitol, 0.005% (v/v) Nonidet-P40 (Sigma)] was added and the mixture was incubated for 15 min at 22° C. to allow pre-binding of the test compounds to the enzyme before the start of the kinase reaction. Then the kinase reaction was started by the addition of 3 μL of a solution of adenosine-tri-phosphate (ATP, 3.3 mM=>final conc. in the 5 μL assay volume is 2 mM) and substrate (0.1 μM=>final conc. in the 5 μL assay volume is 0.06 μM) in assay buffer and the resulting mixture was incubated for a reaction time of 30 min at 22° C. The concentration of MKNK1 was adjusted depending of the activity of the enzyme lot and was chosen appropriate to have the assay in the linear range, typical concentrations were in the range of 0.003 μg/mL. The reaction was stopped by the addition of 5 μL of a solution of TR-FRET detection reagents (5 nM streptavidine-XL665 [Cisbio Bioassays, Codolet, France] and 1 nM anti-ribosomal protein S6 (pSer236)-antibody from Invitrogen [#44921G] and 1 nM LANCE EU-W1024 labeled ProteinG [Perkin-Elmer, product no. AD0071]) in an aqueous EDTA-solution (100 mM EDTA, 0.1% (w/v) bovine serum albumin in 50 mM HEPES pH 7.5).
The resulting mixture was incubated for 1 h at 22° C. to allow the formation of complex between the phosphorylated biotinylated peptide and the detection reagents. Subsequently the amount of phosphorylated substrate was evaluated by measurement of the resonance energy transfer from the Eu-chelate to the streptavidine-XL. Therefore, the fluorescence emissions at 620 nm and 665 nm after excitation at 350 nm were measured in a TR-FRET reader, e.g. a Rubystar (BMG Labtechnologies, Offenburg, Germany) or a Viewlux (Perkin-Elmer). The ratio of the emissions at 665 nm and at 622 nm was taken as the measure for the amount of phosphorylated substrate.

T1 sequence (Q9BUB5 1-424 isoform Q9BUB5-2 T344D): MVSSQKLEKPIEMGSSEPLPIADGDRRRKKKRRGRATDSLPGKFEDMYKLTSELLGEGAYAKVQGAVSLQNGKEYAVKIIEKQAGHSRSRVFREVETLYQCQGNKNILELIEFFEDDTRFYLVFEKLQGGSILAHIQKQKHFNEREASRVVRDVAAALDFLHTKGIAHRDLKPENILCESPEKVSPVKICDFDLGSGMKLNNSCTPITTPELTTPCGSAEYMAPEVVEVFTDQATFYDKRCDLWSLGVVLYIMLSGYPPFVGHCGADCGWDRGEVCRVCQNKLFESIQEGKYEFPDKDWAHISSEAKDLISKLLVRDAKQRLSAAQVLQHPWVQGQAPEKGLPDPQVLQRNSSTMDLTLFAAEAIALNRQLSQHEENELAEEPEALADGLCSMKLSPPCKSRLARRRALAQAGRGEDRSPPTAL

As for `COc1cc2[nH]ncc2cc1Nc1ncnc2sc3c(c12)CC[C@H](C(=O)N1CCC(N(C)C)CC1)C3` [Example 46, [4-(Dimethylamino)piperidin-1-yl]{(7S)-4-[(6-methoxy-1H-indazol-5-yl)amino]-5,6,7,8-tetrahydro[1]benzothieno[2,3-d]pyrimidin-7-yl}methanone], the IC50 came out at 0.1 nM. In the case of `COc1cc2[nH]ncc2cc1Nc1ncnc2sc3c(c12)CC[C@H](C(=O)N1CCC(N(C)CCN(C)C)CC1)C3` [Example 47, (4-{[2-(Dimethylamino)ethyl](methyl)amino}piperidin-1-yl){(7S)-4-[(6-methoxy-1H-indazol-5-yl)amino]-5,6,7,8-tetrahydro[1]benzothieno[2,3-d]pyrimidin-7-yl}methanone], the IC50 was 0.5 nM. On to `COc1cc2[nH]ncc2cc1Nc1ncnc2sc3c(c12)CC[C@H](C(=O)N1CCN(C)CC1)C3` [Example 48, {(7S)-4-[(6-Methoxy-1H-indazol-5-yl)amino]-5,6,7,8-tetrahydro[1]benzothieno[2,3-d]pyrimidin-7-yl}(4-methylpiperazin-1-yl)methanone], for which the IC50 stood at 0.4 nM.

`COc1cc2[nH]ncc2cc1Nc1ncnc2sc3c(c12)CC[C@H](C(=O)N1CCN(C(=O)N(C)C)CC1)C3` [Example 49, 4-({(7S)-4-[(6-Methoxy-1H-indazol-5-yl)amino]-5,6,7,8-tetrahydro[1]benzothieno[2,3-d]pyrimidin-7-yl}carbonyl)-N,N-dimethylpiperazine-1-carboxamide]: the IC50 is 0.1 nM. As to `COc1cc2[nH]ncc2cc1Nc1ncnc2sc3c(c12)CC[C@H](C(=O)N1CCN(CCN(C)C)CC1)C3` [Example 50, {4-[2-(Dimethylamino)ethyl]piperazin-1-yl}{(7S)-4-[(6-methoxy-1H-indazol-5-yl)amino]-5,6,7,8-tetrahydro[1]benzothieno[2,3-d]pyrimidin-7-yl}methanone], the IC50 was 0.1 nM. For `COc1cc2[nH]ncc2cc1Nc1ncnc2sc3c(c12)CC[C@H](C(=O)N(C)CCN(C)C)C3` [Example 51, (7S)—N-[2-(Dimethylamino)ethyl]-4-[(6-methoxy-1H-indazol-5-yl)amino]-N-methyl-5,6,7,8-tetrahydro[1]benzothieno[2,3-d]pyrimidine-7-carboxamide], the IC50 is 0.1 nM.

As to `COc1cc2[nH]ncc2cc1Nc1ncnc2sc3c(c12)CC[C@H](C(=O)N(C)CC(=O)N(C)C)C3` [Example 52, (7S)—N-[2-(Dimethylamino)-2-oxoethyl]-4-[(6-methoxy-1H-indazol-5-yl)amino]-N-methyl-5,6,7,8-tetrahydro[1]benzothieno[2,3-d]pyrimidine-7-carboxamide], the IC50 came out at 0.2 nM. Regarding `CCN(CCN(C)C)C(=O)[C@H]1CCc2c(sc3ncnc(Nc4cc5cn[nH]c5cc4OC)c23)C1` [Example 53, (7S)—N-[2-(Dimethylamino)ethyl]-N-ethyl-4-[(6-methoxy-1H-indazol-5-yl)amino]-5,6,7,8-tetrahydro[1]benzothieno[2,3-d]pyrimidine-7-carboxamide], the IC50 was 0.3 nM. Regarding `COc1cc2[nH]ncc2cc1Nc1ncnc2sc3c(c12)CC[C@H](C(=O)N(C)CCCN(C)C)C3` [Example 54, (7S)—N-[3-(Dimethylamino)propyl]-4-[(6-methoxy-1H-indazol-5-yl)amino]-N-methyl-5,6,7,8-tetrahydro[1]benzothieno[2,3-d]pyrimidine-7-carboxamide], the IC50 stood at 0.4 nM.

Turning to `COc1cc2[nH]ncc2cc1Nc1ncnc2sc3c(c12)CC[C@H](C(=O)N(C)CCC(=O)N(C)C)C3` [Example 55, (7S)—N-[3-(Dimethylamino)-3-oxopropyl]-4-[(6-methoxy-1H-indazol-5-yl)amino]-N-methyl-5,6,7,8-tetrahydro[1]benzothieno[2,3-d]pyrimidine-7-carboxamide], the IC50 was found to be 0.1 nM. Under `COc1cc2[nH]ncc2cc1Nc1ncnc2sc3c(c12)CC[C@H](C(=O)N(CCC(=O)N(C)C)C1CC1)C3` [Example 56, (7S)—N-Cyclopropyl-N-[3-(dimethylamino)-3-oxopropyl]-4-[(6-methoxy-1H-indazol-5-yl)amino]-5,6,7,8-tetrahydro[1]benzothieno[2,3-d]pyrimidine-7-carboxamide] stands 0.3 nM; under `COc1cc2[nH]ncc2cc1Nc1ncnc2sc3c(c12)CC[C@H](C(=O)N(C)CCN(C)CCN(C)C)C3` [Example 57, (7S)—N-(2-{[2-(Dimethylamino)ethyl](methyl)amino}ethyl)-4-[(6-methoxy-1H-indazol-5-yl)amino]-N-methyl-5,6,7,8-tetrahydro[1]benzothieno[2,3-d]pyrimidine-7-carboxamide], 0.7 nM; under `COc1cc2[nH]ncc2cc1Nc1ncnc2sc3c(c12)CC[C@H](C(=O)N(CCO)CCCN(C)C)C3` [Example 58, (7S)—N-[3-(Dimethylamino)propyl]-N-(2-hydroxyethyl)-4-[(6-methoxy-1H-indazol-5-yl)amino]-5,6,7,8-tetrahydro[1]benzothieno[2,3-d]pyrimidine-7-carboxamide], 0.3 nM.

Regarding `COc1cc2[nH]ncc2cc1Nc1ncnc2sc3c(c12)CC[C@H](C(=O)N(CCCN(C)C)CCCN(C)C)C3` [Example 59, (7S)—N,N-bis[3-(Dimethylamino)propyl]-4-[(6-methoxy-1H-indazol-5-yl)amino]-5,6,7,8-tetrahydro[1]benzothieno[2,3-d]pyrimidine-7-carboxamide], the IC50 worked out at 0.2 nM.

As to `COc1cc2[nH]ncc2cc1Nc1ncnc2sc3c(c12)CC[C@H](C(=O)N(CCN(C)C)Cc1ccccn1)C3` [Example 60, (7S)—N-[2-(Dimethylamino)ethyl]-4-[(6-methoxy-1H-indazol-5-yl)amino]-N-(pyridin-2-ylmethyl)-5,6,7,8-tetrahydro[1]benzothieno[2,3-d]pyrimidine-7-carboxamide], the IC50 is 0.2 nM. As for `COc1cc2[nH]ncc2cc1Nc1ncnc2sc3c(c12)CC[C@H](C(=O)N(CCN(C)C)Cc1cccnc1)C3` [Example 61, (7S)—N-[2-(Dimethylamino)ethyl]-4-[(6-methoxy-1H-indazol-5-yl)amino]-N-(pyridin-3-ylmethyl)-5,6,7,8-tetrahydro[1]benzothieno[2,3-d]pyrimidine-7-carboxamide], the IC50 amounted to 0.1 nM. As to `COc1cc2[nH]ncc2cc1Nc1ncnc2sc3c(c12)CC[C@H](C(=O)N(CCN(C)C)Cc1ccncc1)C3` [Example 62, (7S)—N-[2-(Dimethylamino)ethyl]-4-[(6-methoxy-1H-indazol-5-yl)amino]-N-(pyridin-4-ylmethyl)-5,6,7,8-tetrahydro[1]benzothieno[2,3-d]pyrimidine-7-carboxamide], the IC50 worked out at 0.1 nM.

For the compound `COc1cc2[nH]ncc2cc1Nc1ncnc2sc3c(c12)CC[C@H](C(=O)N(CCCN(C)C)Cc1ccccc1)C3` [Example 63, (7S)—N-Benzyl-N-[3-(dimethylamino)propyl]-4-[(6-methoxy-1H-indazol-5-yl)amino]-5,6,7,8-tetrahydro[1]benzothieno[2,3-d]pyrimidine-7-carboxamide], the IC50 amounted to 0.2 nM. For the compound `COc1cc2[nH]ncc2cc1Nc1ncnc2sc3c(c12)CC[C@H](C(=O)N1C(=O)O[C@H](c2ccccc2)[C@@H]1C)C3` [Example 64, (4S,5R)-3-({(7S)-4-[(6-Methoxy-1H-indazol-5-yl)amino]-5,6,7,8-tetrahydro[1]benzothieno[2,3-d]pyrimidin-7-yl}carbonyl)-4-methyl-5-phenyl-1,3-oxazolidin-2-one], the IC50 was 10.5 nM.

Turning to `CCOc1cc2[nH]ncc2cc1Nc1ncnc2sc3c(c12)CC[C@H](C(=O)N(C)CC(F)F)C3` [Example 65, (7S)—N-(2,2-Difluoroethyl)-4-[(6-ethoxy-1H-indazol-5-yl)amino]-N-methyl-5,6,7,8-tetrahydro[1]benzothieno[2,3-d]pyrimidine-7-carboxamide], the IC50 turned out to be 0.6 nM.
